# Experimental data reported in patent US11229654B2, “Combination therapy of tetracyclic quinolone analogs for treating cancer” (Senhwa Biosciences, Inc., priority 2015, dated 2022).
# Read-outs that look alike come from different tables or passages of the source.
# Key:
# [1] = test system: Toledo cell; experiment: Anti-proliferation assay (MTS), Toledo cells; type: cell-based, human; conditions: for IC50 / Estimated IC25: single drug treatment, 96 hours post-treatment; for IC50: read-out: Estimated IC50
# Description: (§1) Three human Lymphoma cell lines Toledo, MC116 and HT were purchased from the Bioresource Collection and Research Center (BCRC, Taiwan). All cells were incubated in a humidified atmosphere containing 5% C02 at 37° C.
# (§2) CAL-101, also known as Idelalisib, is a PI3K-delta inhibitor with potential immunomodulating and antineoplastic activities. Anticancer activity of the combination of Compound A and CAL-101 on three human Lymphoma cell lines (Toledo, MC116, HT) was assessed using in vitro cell proliferation assay. Cell proliferation of drug-treated human cancer cells was determined at 96 hours post-treatment using the MTS (Promega) colorimetric assay.
# (§3) Corrected absorbance values were obtained by subtracting the average 490 nm absorbance of the control wells (medium only, no cell) from all other absorbance values. Percentage inhibition of cell growth for compound treatment was calculated using this formula: […]
# (§4) The sigmoidal dose-response curve is generated by fitting the percentage inhibition value as a function of logarithm of compound concentrations using GraphPad Prism software. IC50 values are defined as the concentration needed for a 50% inhibition of cell growth. […] All data represent the results of triplicate experiments.
# (§5) Estimated IC50 and IC25 values were calculated based on non-linear regression of the dose-response curves of the cell proliferation ratio (%) as a function of logarithm of drug concentrations in single treatments.
# [2] = test system: MC116 cell; experiment: Anti-proliferation assay (MTS), MC116 cells; type: cell-based, human
# Description: as §1, §2, §3, §4, §5
# [3] = test system: HT cell; experiment: Anti-proliferation assay (MTS), HT cells; type: cell-based, human
# Description: as §1, §2, §3, §4, §5
# [4] = test system: HBCx-17 (BRCA2 mutant) cancer cell line; experiment: Chemokine expression in BRCA2 mutant cancer cells; type: cell-based
# Excerpt: (§6) FIG. 8A-8C show effects of Compound A treatment on chemokine expressions in BRCA2 wild type (WT) and mutant (Mut) PDX-derived breast cancer cells.
# (§7) Compound A was applied to both HBCx-39 (BRCA2 wild type) and HBCx-17 (BRCA2 mutant) cancer cell lines in vitro. HBCx-17 is a homologous recombination deficiency tumor cell line having BRCA2 mutation. […] CCL21 and CXCL9 mRNA expression in cancer cells having BRCA2 mutant compared to wild type cancer cells.
# [5] = test system: HBCx-39 (BRCA2 wild type) cancer cell line; experiment: Chemokine expression in BRCA2 wild type cancer cells; type: cell-based
# Excerpt: as §6, §7
# [6] = test system: BRCA1 negative (UWB1.289-2945) human ovarian cancer cell line; experiment: CellTiter-Glo cell viability assay, BRCA1 negative ovarian cancer cells; type: cell-based; conditions: for Cell toxicity of cytokine by itself: 0-5 ng/mL, BRCA1 negative ovarian cancer cell line; for Effect on cell toxicity in the presence of Compound A: cytokine 0-5 ng/mL together with Compound A
# Description: (§8) BRCA1 negative (UWB1.289-2945) and BRCA1 positive (UWB1.289) human ovarian cancer cell lines were purchased from the American Type Culture Collection (ATCC). Those cell were incubated in a humidified atmosphere containing 5% C02 at 37° C.
# (§9) The anticancer activity of Compound A on BRCA1 negative and BRCA1 positive human ovarian cancer cell lines were also assessed using in vitro cell proliferation assay. Cell proliferation of drug-treated human cancer cell was determined at 72 hours post-treatment using the CellTiter-Glo® Luminescent cell viability assay (Promega). IC50 values are defined as the concentration needed for a 50% inhibition of cell growth and were calculated in GraphPad. The anti-proliferative effects of Compound A alone and in combination with cytokines on these two cell lines are shown in FIGS. 4-6.
# (§10) Percentage inhibition of cell growth for compound treatment was calculated using this formula: […]
# (§11) The data were processed using built-in excel-macro. Cell viability/proliferation was expressed as […] with respect to the average signal from the untreated control wells of the respective plate. Out-liar values (of the triplicate) were rejected during QC. The processed data were plotted using Graphpad software. Statistical analysis was done using Excel (Microsoft) and Pair-wise comparison of two groups was made using the student's t test. All data represent the results of triplicate experiments.
# (§12) Here, two types of cytokines, TNF-α and IFN-γ, were used (0, 0.008, 0.04, 0.2, 1, 5 ng/mL) in response to together with Compound A.
# [7] = test system: BRCA1 positive (UWB1.289) human ovarian cancer cell line; experiment: CellTiter-Glo cell viability assay, BRCA1 positive ovarian cancer cells; type: cell-based; conditions: for Cell toxicity of cytokine by itself: 0-5 ng/mL, BRCA1 positive ovarian cancer cell line
# Description: as §8, §9, §10, §11, §12
# [8] = Homo sapiens, single drug treatment, 96 hours post-treatment, read-out: Estimated IC50
# [9] = Homo sapiens, single treatment, read-out: IC50
# [10] = single drug treatment, 96 hours post-treatment
Compound,IC50 ([1]; Homo sapiens) [nM],Estimated IC25 [1] [nM],"IC50 [2, 8] [nM]","Estimated IC25 [2, 10] [nM]","IC50 [3, 8] [nM]","Estimated IC25 [3, 10] [nM]",Cell toxicity of cytokine by itself [6],Effect on cell toxicity in the presence of Compound A ([6]; BRCA1 negative cells),Cell toxicity of cytokine by itself [7],further results
CC[C@H](Nc1ncnc2[nH]cnc12)c1nc2cccc(F)c2c(=O)n1-c1ccccc1 [CAL-101],76,25.3 ± 14.9,118000 ± 29600,39286.7 ± 9871.2,10100 ± 1380,3357.3 ± 461.0,,,,"inhibition at 0.4 µM ([1]; Homo sapiens, IC50 conc. used: Compound A 50 nM, CAL-101 400 nM): 49.6 ± 1.7%; inhibition at 17.5 µM ([2]; Homo sapiens, IC25 conc. used: Compound A 150 nM, CAL-101 17500 nM): 9.2 ± 3.4%; inhibition at 35 µM ([2]; Homo sapiens, IC50 conc. used: Compound A 450 nM, CAL-101 35000 nM): 70.4 ± 3.1%; IC50 [2, 9]: > 10000 nM; inhibition at 2.6667 µM ([3]; Homo sapiens, IC25 conc. used: Compound A 133.3 nM, CAL-101 2666.7 nM): 19.7 ± 4.3%; inhibition at 8 µM ([3]; Homo sapiens, IC50 conc. used: Compound A 400 nM, CAL-101 8000 nM): 37.6 ± 1.5%; IC50 [3, 9]: > 10000 nM"
"Cc1cnc(CNC(=O)c2c(=O)c3ccc(N4CCCN(C)CC4)nc3n3c2sc2ccccc23)cn1 [Compound A, 2-(4-Methyl-[1,4]diazepan-1-yl)-5-oxo-5H-7-thia-1,11b-diaza-benzo[c]fluorene-6-carboxylic acid (5-methyl-pyrazin-2-ylmethyl)-amide]",45.9,15.3 ± 0.8,723,241.0 ± 6.5,526,175.1 ± 6.6,,,,"CCL9, CCL21 and CXCL9 mRNA expression ([4]; BRCA2 mutant compared to wild type cancer cells): increased more; Production of chemokines in tumor cells ([4]; HBCx-17 BRCA2 mutant): capable of inducing the production of several important chemokines; Inhibition (%) ([1]; IC50 conc. used: Compound A 50 nM, CAL-101 400 nM): 25.6 ± 2.5%; Production of chemokines in tumor cells [5]: capable of inducing the production of several important chemokines; Inhibition (%) ([2]; IC25 conc. used: Compound A 150 nM, CAL-101 17500 nM): 44.3 ± 5.5%; Inhibition (%) ([2]; IC50 conc. used: Compound A 450 nM, CAL-101 35000 nM): 83.4 ± 1.2%; Inhibition (%) ([3]; IC25 conc. used: Compound A 133.3 nM, CAL-101 2666.7 nM): 15.2 ± 0.9%; Inhibition (%) ([3]; IC50 conc. used: Compound A 400 nM, CAL-101 8000 nM): 41.2 ± 1.9%; IC50 ([6]; Homo sapiens, BRCA1 negative cells, 72 hours post-treatment): 2.34 to 3.78 nM; Maximum toxicity ([7]; BRCA1 positive UWB1.289, highest concentration (100 nM), 72 hours): ≤ 40%"
"IFN-γ: cytokine, Interferon gamma",,,,,,,"minimal, but increasing trend of cell toxicity with increasing dose",additive effect,"minimal, but increasing trend of cell toxicity with increasing dose",
TNF-α,,,,,,,"minimal, but increasing trend of cell toxicity with increasing dose",additive effect,"minimal, but increasing trend of cell toxicity with increasing dose",
